Assay results from ChEMBL document CHEMBL2040738, “Regioselective N1-alkylation of 3,4-dihydropyrimidine-2(1H)-ones: screening of their biological activities against Ca(2+)-ATPase” (Eur J Med Chem, 2012).
Active and inactive are the calls of the source. No cut-off for these calls is given here.

Legend:
[1] = Inhibition of goat Ca2+-ATPase assessed as liberation of inorganic phosphate preincubated for 5 mins measured after 30 mins following ATP addition by colorimetric analysis in presence of Mg2+; parameters: species or system Capra hircus; conditions: read-out: I50
[2] = Inhibition of sodium/potassium ATPAse
[3] = Inhibition of goat Ca2+-ATPase assessed as liberation of inorganic phosphate preincubated for 5 mins measured after 30 mins following ATP addition by colorimetric analysis in absence of Mg2+; parameters: species or system Capra hircus; conditions: read-out: I50
Capra hircus [4] = species: Capra hircus; assay: Inhibition of goat Ca2+-ATPase assessed as liberation of inorganic phosphate preincubated for 5 mins measured after 30 mins following ATP addition by colorimetric analysis in presence of Mg2+ and 300 uM verapamil
Capra hircus [5] = species: Capra hircus; assay: Inhibition of goat Ca2+-ATPase assessed as liberation of inorganic phosphate preincubated for 5 mins measured after 30 mins following ATP addition by colorimetric analysis in absence of Mg2+ and 300 uM verapamil

| IC50 [1] | inhibition [2] | IC50 [3] | inhibition (Capra hircus [4]) | inhibition (Capra hircus [5]) | SMILES |
| --- | --- | --- | --- | --- | --- |
| 132 µM | inactive | 282 µM | Active | Active | CCOC(=O)C1=C(C)NC(=O)NC1c1cccc([N+](=O)[O-])c1 (stereo not given) |
| 222 µM | inactive | 226 µM | Active | Active | CCOC(=O)C1=C(C)NC(=O)NC1c1ccccc1 (stereo not given) |
| 289 µM | inactive | 203 µM | Active | Active | CCOC(=O)C1=C(C)NC(=O)NC1c1ccc(O)cc1 (stereo not given) |
| 268 µM | inactive | 247 µM | Active | Active | CCOC(=O)C1=C(C)NC(=O)NC1c1ccccc1Cl (stereo not given) |
